# Entries after “also recorded” stand apart in the source; their conditions may differ.
# How the values were obtained:
# [1] = biological target: T1, NMDARs of spinal dorsal horn neurons (Mus musculus, UniProt P35436+P35438+Q01097); test: Electrophysiological recordings in mouse spinal cord slices (spared nerve injury); type: cell-based; conditions: Cacna2d1+/+ mice; bath application of AP5
# T1 construct: from tissue; host or cells: mouse lumbar spinal cord slices (dorsal horn / lamina II neurons), WT and Cacna2d1 KO
# [2] = test system: presynaptic NMDARs of spinal dorsal horn neurons; test: Spinal cord slice recordings, morphine-treated WT and Cacna2d1 KO mice
# [3] = test system: SHRs; test: PVN microinjection and recording of ABP and RSNA in SHRs; type: in vivo, rat
# Experimental: PVN microinjection and recording of renal sympathetic nerve activity: Rats were anaesthetized via i.p. administration of a mixture of α-chloralose (60 mg kg-1) and urethane (800 mg kg-1) and mechanically ventilated with trachea cannulation. The arterial blood pressure (ABP) was monitored via a catheter placed in the left femoral artery, and heart rate (HR) was extracted from the pulsatile pressure wave. A retroperitoneal incision was made, and a branch of the left renal postganglionic sympathetic nerve was isolated under a surgical microscope. The renal sympathetic nerve was cut distally to ensure that afferent activity was not recorded. The ABP, HR and renal sympathetic nerve activity (RSNA) were recorded using a 1401-PLUS analogue-to-digital converter and Spike2 system (Cambridge Electronic Design, Cambridge, UK). After the brain was exposed, a microinjection pipette (tip diameter 20-30 μm) was advanced into the PVN in accordance with the stereotactic co-ordinates: 1.6-2.0 mm caudal to the bregma, 0.5 mm lateral to the midline and 7.0-7.5 mm ventral to the dura. The microinjection was performed using a Nanoject II (Drummond Scientific Company) and monitored using a surgical microscope as described previously (Li & Pan, 2006, 2007; Qiao et al. 2017). […] At the end of each experiment, the electrical background noise was measured after the proximal end of renal nerve was crushed at the end of each experiment. To determine the location of the injection site and diffusion of the drugs in the PVN, 5% rhodamine-labelled fluorescent microspheres (0.04 μm; Molecular Probes) were included in the injection solution. Rats were excluded from the data analysis if the microinjections were misplaced outside the PVN.
# [4] = test system: presynaptic NMDARs of spinal lamina II neurons; test: Spinal cord slice recordings, paclitaxel-treated WT and α2δ-1 KO mice; type: cell-based, mouse; conditions: bath AP5
# [5] = test system: rats treated with the Cacna2d1 vector; test: Withdrawal thresholds in rats overexpressing Cacna2d1 (lentiviral vector); type: in vivo, rat; conditions: Cacna2d1 vector rats; AP5, peptide, gabapentin intrathecal; memantine systemic
# [6] = test system: SNL rats; test: Withdrawal thresholds in spinal nerve ligation (SNL), sham and naive rats; type: in vivo, rat
# Source text: Animal models of neuropathic pain: All surgical preparations and experimental protocols were approved by the Animal Care and Use Committee of the University of Texas MD Anderson Cancer Center and conformed to the National Institutes of Health guidelines for the ethical use of animals. Male Sprague-Dawley rats (8-10 weeks of age) were purchased from Harlan Laboratories (Indianapolis, Ind.). L5 and L6 spinal nerve ligation (SNL) were used as an experimental model of neuropathic pain (Cole et al., 2005). In brief, anesthesia was induced with 2-3% isoflurane, isolated the left L5-L6 spinal nerves and ligated them tightly with 6-0 silk sutures. The rats in the sham control group underwent the same surgical procedures except for the nerve ligation.
# Intrathecal catheters were implanted in some SNL group rats during isoflurane-induced anesthesia 2-3 weeks after SNL surgery. Briefly, the anesthetized animal was placed on a stereotaxic frame, and a small incision was made at the back of its neck. Then, a small puncture was made in the atlanto-occipital membrane of the cisterna magna, and a PE-10 catheter (˜8 cm) was inserted with the caudal tip reaching the lumbar enlargement of the spinal cord (Luo et al., 2001; Patel et al., 2013). The rostral end of the catheter was exteriorized and closed the wound with sutures. The animals were allowed to recover for at least 4 days before the intrathecal injections were performed. Animals displaying signs of motor or neurological dysfunction were immediately killed with an intraperitoneal injection of phenobarbital (200 mg/kg) or by inhalation of CO2.
# Behavioral assessments of nociception: To detect tactile allodynia, von Frey filaments were applied to the animals' left hindpaws (ipsilateral to the nerve injury). The rats or mice were placed individually in suspended chambers on a mesh floor. After an acclimation period of 30 min, a series of calibrated von Frey filaments were applied (Stoelting, Wood Dale, Ill.) perpendicularly to the plantar surface of the hindpaw with sufficient force to bend the filament for 6 s. Brisk withdrawal or paw flinching was considered a positive response. After a response, the filament of the next lower force was applied. In the absence of a response, the filament of the next greater force was applied. Using the up-down method, the tactile stimulus that produced a 50% likelihood of a withdrawal response was calculated (Fuller-Bicer et al., 2009).
# To quantify the mechanical nociceptive threshold in the rats and mice (Patel et al., 2013; Dolphin et al., 2012), the paw pressure tests were conducted on the hindpaw with an analgesiometer (Ugo Basile, Varese, Italy). The device was activated by pressing a foot pedal, which triggered a motor that applied a constantly increasing force on a linear scale. […]
# [7] = biological target: T2, NMDARs of spinal dorsal horn neurons (Rattus norvegicus, UniProt P35439+Q00959+Q00960); test: Electrophysiological recordings in rat spinal cord slices (SNL, Cacna2d1 vector); type: cell-based; set-up: SNL-induced increase in (NMDAR-mediated) baseline frequency of mEPSCs: dose or concentration left out as unconfirmed; conditions: SNL rats, siRNA intrathecal
# T2 construct: from tissue; host or cells: rat lumbar spinal cord slices (lamina II neurons) and synaptosomes made from them
# T2 sequence (Q00959 20-1464 limits assumed, other chains not shown): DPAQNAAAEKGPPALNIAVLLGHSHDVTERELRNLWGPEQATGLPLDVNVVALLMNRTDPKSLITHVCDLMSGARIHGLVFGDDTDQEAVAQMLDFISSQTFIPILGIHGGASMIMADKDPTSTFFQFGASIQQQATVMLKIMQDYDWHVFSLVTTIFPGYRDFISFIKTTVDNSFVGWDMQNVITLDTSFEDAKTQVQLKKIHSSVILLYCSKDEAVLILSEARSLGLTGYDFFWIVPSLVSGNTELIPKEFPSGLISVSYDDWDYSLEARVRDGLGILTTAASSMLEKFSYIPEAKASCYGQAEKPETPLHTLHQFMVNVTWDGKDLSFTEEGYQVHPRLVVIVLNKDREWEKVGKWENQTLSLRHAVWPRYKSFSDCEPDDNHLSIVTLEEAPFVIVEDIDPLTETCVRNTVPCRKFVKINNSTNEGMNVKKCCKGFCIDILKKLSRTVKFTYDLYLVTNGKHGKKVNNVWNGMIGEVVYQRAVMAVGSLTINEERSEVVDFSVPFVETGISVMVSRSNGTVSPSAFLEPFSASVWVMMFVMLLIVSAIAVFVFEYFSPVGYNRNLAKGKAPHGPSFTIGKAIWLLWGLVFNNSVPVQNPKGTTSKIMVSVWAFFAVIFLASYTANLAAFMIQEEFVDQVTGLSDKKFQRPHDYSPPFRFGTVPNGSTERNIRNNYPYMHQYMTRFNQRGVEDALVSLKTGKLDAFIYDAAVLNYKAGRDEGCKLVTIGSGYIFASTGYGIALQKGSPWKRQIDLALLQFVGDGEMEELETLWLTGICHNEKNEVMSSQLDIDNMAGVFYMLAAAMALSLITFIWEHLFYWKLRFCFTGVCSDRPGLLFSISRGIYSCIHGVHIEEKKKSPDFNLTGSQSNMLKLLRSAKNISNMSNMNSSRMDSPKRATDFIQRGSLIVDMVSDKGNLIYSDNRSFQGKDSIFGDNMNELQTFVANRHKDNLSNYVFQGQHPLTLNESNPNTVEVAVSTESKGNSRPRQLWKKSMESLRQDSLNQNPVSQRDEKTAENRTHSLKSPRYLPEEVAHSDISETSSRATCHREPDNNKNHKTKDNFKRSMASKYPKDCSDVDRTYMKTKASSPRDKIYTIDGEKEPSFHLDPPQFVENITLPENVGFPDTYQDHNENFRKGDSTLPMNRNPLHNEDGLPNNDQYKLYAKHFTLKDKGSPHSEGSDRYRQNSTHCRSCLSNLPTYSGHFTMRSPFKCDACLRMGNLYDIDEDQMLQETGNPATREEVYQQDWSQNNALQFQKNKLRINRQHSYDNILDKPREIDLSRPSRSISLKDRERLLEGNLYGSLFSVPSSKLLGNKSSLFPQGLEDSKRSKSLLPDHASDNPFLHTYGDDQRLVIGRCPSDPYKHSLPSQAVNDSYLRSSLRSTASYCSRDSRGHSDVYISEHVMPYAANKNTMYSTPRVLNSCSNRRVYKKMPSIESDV
# T2 sequence (Q00960 27-1482, other chains not shown): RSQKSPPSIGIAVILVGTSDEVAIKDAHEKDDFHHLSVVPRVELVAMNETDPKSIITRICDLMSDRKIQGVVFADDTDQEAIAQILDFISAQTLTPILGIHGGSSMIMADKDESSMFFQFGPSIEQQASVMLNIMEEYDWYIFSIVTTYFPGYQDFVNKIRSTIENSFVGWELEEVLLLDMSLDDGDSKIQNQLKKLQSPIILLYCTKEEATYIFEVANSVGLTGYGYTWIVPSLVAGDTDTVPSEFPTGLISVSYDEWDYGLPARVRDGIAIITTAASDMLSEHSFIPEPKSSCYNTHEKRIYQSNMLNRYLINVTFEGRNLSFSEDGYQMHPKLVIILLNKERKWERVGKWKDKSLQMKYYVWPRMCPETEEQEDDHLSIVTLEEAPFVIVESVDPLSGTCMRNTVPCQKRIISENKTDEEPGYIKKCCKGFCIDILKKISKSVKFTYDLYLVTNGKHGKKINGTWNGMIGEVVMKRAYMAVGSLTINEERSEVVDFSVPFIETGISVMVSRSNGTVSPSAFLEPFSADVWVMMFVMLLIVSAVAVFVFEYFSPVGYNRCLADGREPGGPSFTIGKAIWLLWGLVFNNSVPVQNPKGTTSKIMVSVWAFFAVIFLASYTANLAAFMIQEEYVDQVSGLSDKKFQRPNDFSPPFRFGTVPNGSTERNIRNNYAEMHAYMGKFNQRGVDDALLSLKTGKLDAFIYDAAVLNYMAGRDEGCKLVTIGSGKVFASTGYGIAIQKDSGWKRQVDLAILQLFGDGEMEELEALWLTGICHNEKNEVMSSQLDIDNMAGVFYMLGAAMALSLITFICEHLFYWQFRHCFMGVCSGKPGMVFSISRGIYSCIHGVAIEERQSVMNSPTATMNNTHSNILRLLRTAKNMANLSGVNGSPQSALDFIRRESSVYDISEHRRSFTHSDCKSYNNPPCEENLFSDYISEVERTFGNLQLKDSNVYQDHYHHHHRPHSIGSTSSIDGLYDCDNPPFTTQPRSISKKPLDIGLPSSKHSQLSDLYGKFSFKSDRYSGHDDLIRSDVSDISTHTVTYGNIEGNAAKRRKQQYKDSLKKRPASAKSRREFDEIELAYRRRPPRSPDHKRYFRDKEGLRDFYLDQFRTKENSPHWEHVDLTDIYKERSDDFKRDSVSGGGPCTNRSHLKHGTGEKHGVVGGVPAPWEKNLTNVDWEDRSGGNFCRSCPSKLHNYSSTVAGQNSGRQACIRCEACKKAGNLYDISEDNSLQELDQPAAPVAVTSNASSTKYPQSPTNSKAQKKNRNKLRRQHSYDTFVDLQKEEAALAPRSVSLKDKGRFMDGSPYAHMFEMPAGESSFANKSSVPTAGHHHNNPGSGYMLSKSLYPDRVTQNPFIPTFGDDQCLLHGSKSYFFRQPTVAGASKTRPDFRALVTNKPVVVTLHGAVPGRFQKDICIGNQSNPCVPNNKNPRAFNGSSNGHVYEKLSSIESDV
# Experimental: Electrophysiological recordings in spinal cord slices: Anesthesia was induced in rats or mice with isoflurane and removed the lumbar spinal cords via laminectomy. […] The spinal cord slices were placed in a glass bottom chamber and continuously perfused with Krebs solution at 5.0 ml/min at 34° C. maintained by an inline solution heater and a temperature controller.
# It becomes impossible to visualize neurons in other laminas in adult (>10-week-old) rodent spinal cords because of heavy laminar myelination. […] The tip of the puff pipette was placed 150 μm away from the recorded neuron.
# In some experiments, the attached dorsal root was electrically stimulated with a stimulating electrode (0.5 ms, 0.6 mA and 0.1 Hz) to evoke monosynaptic excitatory postsynaptic currents (EPSCs). The α-amino-3-hydroxy-5-methyl-4-isoxazolepropionic acid receptor (AMPAR)-mediated EPSCs were recorded at a holding potential of −60 mV in the presence of 10 μM bicuculline and 1 μM strychnine, whereas NMDAR-mediated EPSCs were recorded at +40 mV in the presence of 10 μM 6-cyano-7-nitroquinoxaline-2,3-dione, 10 μM bicuculline, and 1 μM strychnine. […] All signals were recorded using an amplifier (MultiClamp700B; Axon Instruments Inc., Union City, Calif.), filtered at 1-2 kHz, digitized at 10 kHz, and stored for off-line analysis. Final spinal cord slice recordings were performed 3-4 weeks after the nerve injury or sham surgery. In all electrophysiological experiments, 3-5 animals were used for each recording protocol, and only 1 neuron was recorded in each spinal cord slice.
# [8] = test system: α2δ-1; test: α2δ expression in DRG and dorsal spinal cord after intrathecal siRNA (PCR, Western blot); type: in vivo, rat; conditions: SNL rats
# Experimental: Li et al., 2004). α2δ-1-specific siRNA […] ID NO:49) or universal negative-control siRNA (#SIC001, Sigma-Aldrich, St. Louis, Mo.) was mixed with i-Fect (Neuromics, Edina, Minn.) to a final concentration of 400 mg/L for the intrathecal injections. α2δ-1-specific siRNA or negative control siRNA (4 μg/day for 4 days) was administered intrathecally in the SNL rats 3 weeks after surgery (Dolphin et al., 2012). Western immunoblotting analysis of α2δ-1: Western blotting was used to quantify the α2δ-1 expression level in the DRG and dorsal spinal cord. […] The supernatant was carefully collected, and the protein concentration was measured using a DC Protein Assay Kit (Bio-Rad, Hercules, Calif.). […] The specific protein band detected by using the α2δ-1 antibody was confirmed by assays of protein knockdown using the α2δ-1-specific siRNA in vivo. The protein bands were detected with ECL kit (Thermo Fisher Scientific, Waltham, Mass.), and protein band intensity was visualized and quantified using the Odyssey Fc Imager (LI-COR Biosciences, Lincoln, Nebr.). Quantitative PCR analysis: Total RNA was extracted from the DRG and spinal cord tissues at the L5 and L6 levels using TRIzol-chloroform and then treated with DNase I (Invitrogen). cDNA was prepared by using the SuperScript III First-Strand Synthesis Kit and then treated with RNase H (Invitrogen). […]
# [9] = morphine-treated Cacna2d1 KO mice, AP5
# [10] = morphine-treated WT mice, AP5 50 μM
# [11] = paclitaxel-treated α2δ-1 KO mice
Substance,nerve injury-increased amplitude of monosynaptic EPSCs evoked by dorsal root stimulation [1],"amplitude or PPR of monosynaptic EPSCs [2, 9]","frequency or amplitude of mEPSCs [2, 9]","PPR of evoked EPSCs [2, 10]","amplitude of monosynaptic EPSCs [2, 10]","baseline frequency of mEPSCs [2, 10]","ABP and RSNA, subsequent AP5 after α2δ-1Tat peptide ([3]; AP5 1.0 nmol, 50 nL into the PVN)","ABP and RSNA, AP5 after prior Tat-fused control peptide ([3]; AP5 into the PVN)",baseline PPR decreased by paclitaxel ([4]; WT mice),paclitaxel-induced increase in the frequency of mEPSCs ([4]; WT mice),increased baseline amplitude of evoked EPSCs ([4]; paclitaxel-treated WT mice),"PPR [4, 11]","amplitude of evoked EPSCs [4, 11]","frequency of mEPSCs [4, 11]",pain hypersensitivity induced by Cacna2d1 overexpression (tactile and pressure withdrawal thresholds) [5],"pain hypersensitivity of SNL rats ([6]; SNL rats, peptides intrathecal or systemic, siRNA intrathecal)","withdrawal thresholds in naive control rats ([6]; naive control rats, intrathecal siRNA)",SNL-induced increase in puff NMDA currents of dorsal horn neurons ([7]; gabapentin 100 mM for 30 min),SNL-induced increase in (NMDAR-mediated) baseline frequency of mEPSCs ([7]; gabapentin for 30 min),expression level of α2δ-1 in the DRG and dorsal spinal cord [8]
(2R)-amino-5-phosphonopentanoate [AP5],readily normalized,had no effect,had no effect,increased,significantly reduced,substantially reduced,failed to further decrease,significantly decreased,restored,normalized,normalized,had no effect,had no effect,had no effect,readily reversed,,,,,
CAAGCAACGAAGUUGUCUA [Cacna2d1-specific siRNA],,,,,,,,,,,,,,,,reduced pain hypersensitivity,had no effect; also recorded: No significant effects,completely normalized,completely normalized,reduced

# Source: US11787839B2, “Targeting α2δ-1-bound glutamate receptors for treating diseases and disorders” (Board of Regents, The University of Texas System, priority 2017, dated 2023)
